Reference: patent US9868750B2, “4,5-diarylimidazole derivatives as HDAC inhibitors” (CHARITÉ—UNIVERSITÄTSMEDIZIN BERLIN, priority 2014, dated 2018)
Counter-ions that a name gives are not always drawn. Like-named read-outs stand apart in the source and are kept apart here.

How the values were obtained:
[1] = tested on: primary endothelial cells (HUVEC, human umbilical vein endothelial cells); assay: Growth inhibition in HUVEC; format: cell-based; settings: for IC50: 72 h
[2] = tested on: hybrid endothelial cells (Ea.hy926); assay: Growth inhibition in Ea.hy926 cells; format: cell-based; settings: for IC50: Homo sapiens, EA.hy 926, 72 h
[3] = tested on: resistant breast (MCF-7/Topo) cell line; assay: Growth inhibition in MCF-7/Topo breast cancer cells; format: cell-based
[4] = tested on: resistant colon (HT-29) cell line; assay: Growth inhibition (MTT) in HT-29 colon cancer cells; format: cell-based, human
Tolerance in Balb/c mice = format: in vivo; settings: two Balb/c mice
From the text: FIG. 8: Tolerance of Et-Animacroxam (compound 3) in two Balb/c mice (x-axis: day 1-7; y-axis: weight in gram).

recombinant human HDAC1 = recombinant human HDAC1 (Homo sapiens, UniProt Q13547); assay: Fluorescence-based HDAC activity assay, recombinant HDAC1; settings: for fold less efficacious than vorinostat on HDAC1: relative to vorinostat IC50
Method: (§1) Briefly, cell pellets from mass cultures were resuspended and incubated in cell extraction buffer (20 mM HEPES, 10 mM KCl, 0.1 mM EDTA, 0.1 mM EGTA, 1.5 mM MgCl2, 0.5 mM DTT) containing 0.1% Triton X-100 to lyse cell membranes and leave intact nuclei. After centrifugation (3,000 g, 2 min), the supernatant containing cytosolic proteins was aspirated from the nuclei pellet and the protein concentration of the cytosolic fraction was determined by a standard Bradford assay (Pierce/Thermo Scientific).
(§2) A fluorescence-based HDAC activity assay was used to assess the compound specificity for distinct HDAC classes. […] The Fluor-de-Lys substrate used allows to measure broad-spectrum HDAC activity from extracts or recombinant protein.

[5] = tested on: HDAC active isolates from HeLa nuclear extract; assay: Fluorescence-based HDAC activity assay, HeLa nuclear extract; settings: read-out: HDAC inhibition IC50, HeLa nuclear extract; 0.5 μg extract, 25 μM Fluor-de-Lys substrate, 60 min
Method: as §1, §2

[6] = tested on: HDAC active isolates from HeLa cytosolic extract; assay: Fluorescence-based HDAC activity assay, HeLa cytosolic extract; settings: for IC50: read-out: HDAC inhibition IC50, HeLa cytosolic extract, 1 μg extract, 25 μM Fluor-de-Lys substrate, 60 min
Method: as §1, §2

[7] = tested on: acetylated lysine residues in alpha-tubulin, 518A2 melanoma cells; assay: Immunoblot for acetylated alpha-tubulin in 518A2 cells; format: cell-based, human; settings: […] or 5 μM, 24 h, versus SAHA 5 μM
From the text: Cell lysates were subjected to gel electrophoresis and immunoblotting for acetylated lysine residues in alpha-tubulin (55 kDa).

[8] = tested on: non-malignant fibroblasts (CF, chicken fibroblasts); assay: Growth inhibition in chicken fibroblasts; format: cell-based; settings: Gallus gallus, Fibroblast, 72 h
recombinant human HDAC6 = target: T1, recombinant human HDAC6 (Homo sapiens, UniProt Q9UBN7); assay: Fluorescence-based HDAC activity assay, recombinant HDAC6
T1 sequence (Q9UBN7 1-1215): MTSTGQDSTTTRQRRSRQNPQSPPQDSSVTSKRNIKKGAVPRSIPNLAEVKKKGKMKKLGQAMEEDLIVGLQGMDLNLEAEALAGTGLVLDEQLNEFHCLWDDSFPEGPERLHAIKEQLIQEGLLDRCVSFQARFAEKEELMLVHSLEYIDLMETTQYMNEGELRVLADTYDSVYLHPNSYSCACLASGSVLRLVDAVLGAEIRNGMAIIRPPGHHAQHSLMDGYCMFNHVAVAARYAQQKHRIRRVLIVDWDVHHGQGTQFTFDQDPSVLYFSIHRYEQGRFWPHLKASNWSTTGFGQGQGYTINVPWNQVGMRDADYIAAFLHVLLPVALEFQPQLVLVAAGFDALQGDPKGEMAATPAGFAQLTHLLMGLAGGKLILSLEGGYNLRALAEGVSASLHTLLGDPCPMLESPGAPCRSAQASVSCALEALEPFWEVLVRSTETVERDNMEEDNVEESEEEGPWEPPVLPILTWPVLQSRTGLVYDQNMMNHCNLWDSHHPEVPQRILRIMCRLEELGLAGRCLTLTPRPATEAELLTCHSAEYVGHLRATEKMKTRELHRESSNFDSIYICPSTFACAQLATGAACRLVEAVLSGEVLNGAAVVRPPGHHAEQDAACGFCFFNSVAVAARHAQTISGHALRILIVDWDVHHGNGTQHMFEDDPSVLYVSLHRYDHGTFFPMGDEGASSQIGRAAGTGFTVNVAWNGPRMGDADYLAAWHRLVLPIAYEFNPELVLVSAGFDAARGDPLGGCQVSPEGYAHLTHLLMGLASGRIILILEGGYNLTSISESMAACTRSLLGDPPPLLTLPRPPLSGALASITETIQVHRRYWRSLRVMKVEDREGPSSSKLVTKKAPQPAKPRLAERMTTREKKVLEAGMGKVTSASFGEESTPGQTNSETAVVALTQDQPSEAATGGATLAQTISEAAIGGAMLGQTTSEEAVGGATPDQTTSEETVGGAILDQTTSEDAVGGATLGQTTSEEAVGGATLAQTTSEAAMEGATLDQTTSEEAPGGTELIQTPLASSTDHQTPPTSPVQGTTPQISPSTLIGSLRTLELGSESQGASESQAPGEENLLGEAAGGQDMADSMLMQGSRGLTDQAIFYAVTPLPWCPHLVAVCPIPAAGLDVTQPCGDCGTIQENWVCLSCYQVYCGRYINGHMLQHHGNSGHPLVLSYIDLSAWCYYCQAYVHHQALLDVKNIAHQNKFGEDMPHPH
From the text: as §2

[9] = tested on: EGF-stimulated MCF-7/Topo cells; assay: Matrigel-Transwell-Migration Assay; format: cell-based; settings: EGF 200 ng/mL, 48 h
Method: FIG. 6: Influence of imidazole-based HDAC inhibitors Et-Animacroxam (compound 3) and Bimacroxam (compound 4) on resistance factors in tumor cell lines. A: Western blot analysis of Akt-phosphorylation (phospho-Akt) in 518A2 and MCF-7/Topo cell lysates (10 μg protein each) after 6 h of incubation. […] The amount of invasive cells was determined after calcein treatment via fluorescence measurement and DMSO-treated controls without EGF were set to 100%.

[10] = tested on: 1411HP xenograft (Cisplatin-resistant testicular cancer); assay: 1411HP xenograft model; format: in vivo, mouse; settings: 150 mg/kg i.p.
Method: FIG. 9: Activity of Et-Animacroxam (compound 3) in the 1411HP xenograft model (left: before treatment; right: 24 h after treatment with 150 mg/kg i.p. of Et-Animacroxam).

[11] = tested on: BRAF-mutant melanoma (518A2); assay: Growth inhibition (MTT) in 518A2 melanoma cells; format: cell-based, human
[12] = tested on: resistant cervix carcinoma (KB-V1/Vbl) cell line; assay: Growth inhibition in KB-V1/Vbl cervix carcinoma cells; format: cell-based; settings: Homo sapiens, 72 h, read-out: IC50 KB-V1/Vbl
518A2 melanoma cells = assay: Western blot of 518A2 cell lysates: caspase-9 cleavage and histone H2B acetylation; format: cell-based, human; settings: 518A2 cells; for acetylation of histone proteins (H2B) and alpha-tubulin after drug treatment: Western blot
Method: Western blot analysis of 518A2 cell lysates after drug treatment (3-24 h).

[13] = tested on: HDAC active isolates from HeLa nuclear extract; settings: 0.5 μg extract, 25 μM Fluor-de-Lys substrate, 60 min; read-out: HDAC inhibition IC50, HeLa nuclear extract (values from Mahal et al. 2015); cited from earlier work

recombinant human HDAC1, sequence (Q13547 whole entry): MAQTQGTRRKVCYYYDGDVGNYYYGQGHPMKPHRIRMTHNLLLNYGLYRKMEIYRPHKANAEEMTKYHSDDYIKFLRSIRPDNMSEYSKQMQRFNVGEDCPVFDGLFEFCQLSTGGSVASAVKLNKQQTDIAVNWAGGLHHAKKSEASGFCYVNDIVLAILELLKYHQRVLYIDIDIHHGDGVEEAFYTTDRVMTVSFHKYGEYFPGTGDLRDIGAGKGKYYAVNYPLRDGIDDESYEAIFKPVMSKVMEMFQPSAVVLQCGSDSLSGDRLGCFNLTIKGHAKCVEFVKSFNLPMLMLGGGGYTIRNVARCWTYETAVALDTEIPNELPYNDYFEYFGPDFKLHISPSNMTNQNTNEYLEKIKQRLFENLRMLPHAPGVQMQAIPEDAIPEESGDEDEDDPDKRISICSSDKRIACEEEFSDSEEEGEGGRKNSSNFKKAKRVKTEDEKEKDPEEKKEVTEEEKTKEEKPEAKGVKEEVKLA

IC50 ([4]; 72 h) [nM] | IC50 ([11]; 72 h) [nM] | SMILES | IC50 ([1]; Homo sapiens, HUVEC) [nM] | IC50 [2] [nM] | IC50 ([4]; Homo sapiens, HT-29, 72 h) [nM] | IC50 (recombinant human HDAC1) [nM] | fold less efficacious than vorinostat on HDAC1 (recombinant human HDAC1) | IC50 [6] [nM] | acetylated alpha-tubulin [7] | IC50 [8] [µM] | IC50 (recombinant human HDAC6) [nM] | IC50 ([11]; Homo sapiens, 518A2, 72 h) [nM] | IC50 [12] [µM] | acetylation of histone proteins (H2B) and alpha-tubulin after drug treatment (518A2 melanoma cells) | other results
 |  | Cn1cnc(-c2ccccc2)c1-c1ccc(/C=C/C(=O)NO)cc1 (as salt: HCl) [Compound 4, 1-Methyl-4-phenyl-5-(4′-hydroxyaminocarbonylethenyl-phenyl)-imidazole×HCl] |  |  |  |  |  |  |  |  |  |  |  |  | melting point: 189 to 190 °C
 |  | CCn1cnc(-c2ccc(OC)cc2)c1-c1ccc(/C=C/C(=O)NO)cc1 [Compound 3, 1-Ethyl-4-(4-methoxyphenyl)-5-(4′-hydroxyaminocarbonylethenyl-phenyl)-imidazole×HCl] | 1260 ± 450 | 990 ± 130 | 450 ± 30 | 187 ± 37 | ca. tenfold | 36 ± 14 | much higher extent compared with cells treated with SAHA | > 50 | 66 | 950 ± 190 | 2.91 ± 0.98 | vastly acetylated | IC50 ([3]; Homo sapiens, MCF7/Topo, 72 h, read-out: IC50 MCF-7/Topo): 5.6 ± 0.33 µM; signs of toxicity (Tolerance in Balb/c mice; 2×20 mg/kg i.p. on two consecutive days): no signs of toxicity; weight of treated mice (Tolerance in Balb/c mice; 2×20 mg/kg i.p., day 1-7): roughly remained the same; IC50 [5]: 504 ± 24 nM; times more active than vorinostat in the cytosolic fraction ([6]; HeLa cytosolic extract): ca. four; times more HDAC inhibiting in the cytosolic than in the nuclear fraction ([6]; HeLa cytosolic vs nuclear extract): ca. 14 times; invasiveness of MCF-7/Topo cells [9]: significantly reduced invasiveness; diameter of bigger vessels of the tumor body ([10]; after 24 h): reduced significantly; visible side effects ([10]; mouse): did not cause any visible side effects; apoptosis induction (caspase-9-cleavage) (518A2 melanoma cells; 3-24 h): leads to apoptosis induction (caspase-9-cleavage)
 |  | Cn1cnc(-c2ccccc2)c1-c1ccc(/C=C/C(=O)NO)cc1 [Compound 4, 1-Methyl-4-phenyl-5-(4′-hydroxyaminocarbonylethenyl-phenyl)-imidazole×HCl] | 550 ± 290 | 160 ± 30 | 1330 ± 70 | 28 ± 11 | ca. twofold | 132 ± 14 | much higher extent compared with cells treated with SAHA | > 50 | 107 ± 23 | 2760 ± 620 | 5.04 ± 1.82 | vastly acetylated | fold stronger in primary endothelial cells compared with 3 and SAHA ([1]; HUVEC): 12 fold; fold stronger in the Ea.hy926 cell line compared with 3 and SAHA ([2]; Ea.hy926): 10 fold; IC50 ([3]; Homo sapiens, MCF7/Topo, 72 h; read-out: IC50 MCF-7/Topo): 15.3 ± 1.4 µM; IC50 [13]: 234 nM
1450 ± 60 | 1940 ± 40 | Cn1cnc(-c2ccc(F)cc2)c1-c1ccc(C=CC(=O)NO)cc1 [Compound F-3, 1-Methyl-4-(4-fluorophenyl)-5-(4′-hydroxyaminocarbonylethenyl-phenyl)-imidazole×HCl] |  |  |  |  |  |  |  |  |  |  |  |  | 
710 ± 60 | 1450 ± 70 | COc1ccc(-c2ncn(C)c2-c2ccc(C=CC(=O)NO)cc2)cc1 [Compound Nor-3, 1-Methyl-4-(4-methoxyphenyl)-5-(4′-hydroxyaminocarbonylethenyl-phenyl)-imidazole×HCl] |  |  |  |  |  |  |  |  |  |  |  |  | IC50 [1]: 830 ± 260 nM
2800 ± 70 | 2230 ± 60 | Cn1cnc(-c2ccccc2)c1-c1cccc(C=CC(=O)NO)c1 [Compound iso-4, 1-Methyl-4-phenyl-5-(3′-hydroxyaminocarbonylethenyl-phenyl)-imidazole×HCl] |  |  |  |  |  |  |  |  |  |  |  |  | 
